We go through four molecules from article PMC8102066 (eLife, 2021).

As a reminder, the EC50 is the concentration at which the effect is half-maximal. Usually IC50 stands for the concentration at which inhibition is half-maximal.

Values joined by “and” are separate entries in the source; they are usually repeats but may differ in a detail not shown here. Equal values may be shown once.

Data set [1] addresses mGluR2 (Rattus norvegicus, UniProt P31421). Briefly: Calcium imaging (G protein chimera, GCaMP6f) in HEK 293 T cells.
For data set [2], the target named is T1, mGluR2-I779A (Rattus norvegicus, UniProt P31421, I779A).
T1 construct: we performed calcium imaging experiments with mutations in the full-length mGluR2 background; expressed in transfected cells; host or cells: HEK 293 T
Briefly: Calcium imaging in HEK 293 T cells. It counts as cell-based. As to conditions: for Calcium response amplitude: mGluR2-I779A. The protocol: Approximately 30 ROIs were analyzed per movie.

Data set [3] deals with mGluR2-3xTM4 (Rattus norvegicus, UniProt P31421, A677S/A681F/A685G). Briefly: Calcium imaging (G protein chimera, GCaMP6f) in HEK 293 T cells. As to conditions: for Calcium response amplitude: normalized to 1 mM glutamate, replicates.
In data set [4] the target is T2, mGluR2-C121A (Rattus norvegicus, UniProt P31421, C121A).
T2 construct: expressed in transfected cells; host or cells: HEK 293 T (detergent lysate, pulled down by anti-HA antibody)
Briefly: SiMPull subunit counting in the presence of ligands. As to conditions: SNAP-mGluR2-C121A in presence of the ligand; single replicates per experiment day.

Data set [5] concerns mGluR2-TMD-I779A. Described as above. As to conditions: for % Dimerization: SNAP-mGluR2-TMD-I779A in presence of the ligand, single replicates per experiment day. Also noted: species or system rat.
In data set [6] the target is T3, mGluR2-C121A-I779A (Rattus norvegicus, UniProt P31421, C121A/I779A).
T3 construct: expressed in transfected cells; host or cells: HEK 293 T (detergent lysate, pulled down by anti-HA antibody)
Described as above. As to conditions: for % Dimerization: SNAP-mGluR2-C121A-I779A in presence of the ligand, single replicates per experiment day.

Data set [7] concerns mGluR2-TMD-3xTM4-I779A. Described as above. Also noted: species or system rat. The settings on record: for % Dimerization: SNAP-mGluR2-TMD-3xTM4-I779A in presence of the ligand, single replicates per experiment day; for effect of ligand on dimerization (SiMPull): saturating concentration.
The target of data set [8] is T4, mGluR2-C121A-3xTM4-I779A (Rattus norvegicus, UniProt P31421, A677S/A681F/A685G/C121A/I779A).
T4 construct: expressed in transfected cells; host or cells: HEK 293 T (detergent lysate, pulled down by anti-HA antibody)
Described as above. The settings on record: SNAP-mGluR2-C121A-3xTM4-I779A in presence of the ligand; single replicates per experiment day.

Data set [9] has as its system mGluR2-TMD-3xTM4. Described as above. Also noted: species or system rat. The settings on record: for % Dimerization: SNAP-mGluR2-TMD-3xTM4 in presence of the ligand, single replicates per experiment day.
The target of data set [10] is mGluR2-TMD (Rattus norvegicus, UniProt P31421). The description is as above. The settings on record: for % Dimerization: SNAP-mGluR2-TMD in presence of the ligand, single replicates per experiment day; for effect of ligand on dimerization (SiMPull): saturating concentration.
The target in data set [11] is T5, mGluR2-C121A-3xTM4 (Rattus norvegicus, UniProt P31421, A677S/A681F/A685G/C121A).
T5 construct: expressed in transfected cells; host or cells: HEK 293 T (detergent lysate, pulled down by anti-HA antibody)
The data set is described as above. As to conditions: for % Dimerization: SNAP-mGluR2-C121A-3xTM4 in presence of the ligand, single replicates per experiment day.

The target in data set [12] is mGluR2 (Rattus norvegicus, UniProt P31421, INS660ASEIGTGFPFDPHYVEVLGERMHYVDVGPRDGTPVLFLHGNPTSSYVWRNIIPHVAPTHRCIAPDLIGMGKSDKPDLGYFFDDHVRFMDAFIEALGLEEVVLVIHDWGSALGFHWAKRNPERVKGIAFMEFIRPIPTWDEWPEFARETFQAFRTTDVGRKLIIDQNVFIEGTLPMGVVRPLTEVEMDHYREPFLNPVDREPLWRFPNELPIAGEPANIVALVEEYMDWLHQSPVPKLLFWGTPGVLIPPAEAARLAKSLPNCKAVDIGPGLNLLQEDNPDLIGSEIARWLSTLEISGLE). Briefly: Inter-TMD FRET sensor (HaloTag in ICL2), live cells.

The target in data set [13] is mGluR3 (Rattus norvegicus, UniProt P31422). Description: Calcium imaging (G protein chimera, GCaMP6f) in HEK 293 T cells.
Data set [14] deals with group II mGluR. Also on record: method as in Hemstapat et al., 2007. The settings on record: ref Hemstapat et al., 2007; cited from earlier work.
For data set [15], the target named is mGluR3 (Rattus norvegicus, UniProt P31422, INS669ASEIGTGFPFDPHYVEVLGERMHYVDVGPRDGTPVLFLHGNPTSSYVWRNIIPHVAPTHRCIAPDLIGMGKSDKPDLGYFFDDHVRFMDAFIEALGLEEVVLVIHDWGSALGFHWAKRNPERVKGIAFMEFIRPIPTWDEWPEFARETFQAFRTTDVGRKLIIDQNVFIEGTLPMGVVRPLTEVEMDHYREPFLNPVDREPLWRFPNELPIAGEPANIVALVEEYMDWLHQSPVPKLLFWGTPGVLIPPAEAARLAKSLPNCKAVDIGPGLNLLQEDNPDLIGSEIARWLSTLEISGLE). Briefly: Inter-TMD FRET sensor (HaloTag in ICL2), live cells.

Data set [16] concerns SNAP-tagged mGluR2 and mGluR3 constructs. Briefly: Surface expression measurements. The settings on record: construct; single measurements. It counts as cell-based, rat. The source says:
ImageJ was used to analyze fluorescence intensity of cell clusters. […] Fluorescence intensity values for each construct were normalized to wild-type values for comparison.
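Throughout, for Basal FRET Response (%): receptor HaloTag labeled with JF549 donor and JF646 acceptor (1:3), FRET taken as acceptor over summed donor plus acceptor fluorescence intensity, imaged at room temperature.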

T3 sequence (P31421 19-872 C121A/I779A): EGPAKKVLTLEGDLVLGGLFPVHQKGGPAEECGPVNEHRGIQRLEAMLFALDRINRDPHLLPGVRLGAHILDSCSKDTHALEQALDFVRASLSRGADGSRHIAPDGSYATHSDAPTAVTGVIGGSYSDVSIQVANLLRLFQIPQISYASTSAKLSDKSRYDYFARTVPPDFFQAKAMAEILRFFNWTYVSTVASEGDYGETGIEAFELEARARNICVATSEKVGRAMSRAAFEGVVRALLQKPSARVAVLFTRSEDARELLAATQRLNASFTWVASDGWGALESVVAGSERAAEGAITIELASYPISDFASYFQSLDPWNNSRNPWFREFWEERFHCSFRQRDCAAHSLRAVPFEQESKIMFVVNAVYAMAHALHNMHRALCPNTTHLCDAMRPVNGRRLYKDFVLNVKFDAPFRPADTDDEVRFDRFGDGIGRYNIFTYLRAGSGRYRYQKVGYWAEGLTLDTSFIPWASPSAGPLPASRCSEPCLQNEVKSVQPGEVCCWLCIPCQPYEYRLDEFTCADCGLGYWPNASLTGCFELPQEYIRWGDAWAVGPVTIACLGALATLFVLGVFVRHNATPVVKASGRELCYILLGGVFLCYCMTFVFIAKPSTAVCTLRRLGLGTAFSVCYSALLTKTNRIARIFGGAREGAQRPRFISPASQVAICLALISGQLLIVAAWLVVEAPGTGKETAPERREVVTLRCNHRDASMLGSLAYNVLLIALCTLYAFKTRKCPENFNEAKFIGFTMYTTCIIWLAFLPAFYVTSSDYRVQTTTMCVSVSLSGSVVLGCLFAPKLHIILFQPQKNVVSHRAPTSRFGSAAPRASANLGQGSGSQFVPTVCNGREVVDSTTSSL
T2 sequence (P31421 19-872 C121A): as the sequence (P31421 19-872 C121A/I779A) above, with A761I counted along it
T1 sequence (P31421 19-872 I779A): as the sequence (P31421 19-872 C121A/I779A) above, with A103C counted along it
Chain of mGluR2 (Rattus norvegicus, UniProt P31421) (P31421 19-872): as the sequence (P31421 19-872 C121A/I779A) above, with A103C, A761I counted along it
Chain of mGluR2-3xTM4 (P31421 19-872 A677S/A681F/A685G): as the sequence (P31421 19-872 C121A/I779A) above, with A103C, A659S, A663F, A667G, A761I counted along it
Chain of UniProt P31421 (P31421 with tags, fused parts or gaps with the stated changes): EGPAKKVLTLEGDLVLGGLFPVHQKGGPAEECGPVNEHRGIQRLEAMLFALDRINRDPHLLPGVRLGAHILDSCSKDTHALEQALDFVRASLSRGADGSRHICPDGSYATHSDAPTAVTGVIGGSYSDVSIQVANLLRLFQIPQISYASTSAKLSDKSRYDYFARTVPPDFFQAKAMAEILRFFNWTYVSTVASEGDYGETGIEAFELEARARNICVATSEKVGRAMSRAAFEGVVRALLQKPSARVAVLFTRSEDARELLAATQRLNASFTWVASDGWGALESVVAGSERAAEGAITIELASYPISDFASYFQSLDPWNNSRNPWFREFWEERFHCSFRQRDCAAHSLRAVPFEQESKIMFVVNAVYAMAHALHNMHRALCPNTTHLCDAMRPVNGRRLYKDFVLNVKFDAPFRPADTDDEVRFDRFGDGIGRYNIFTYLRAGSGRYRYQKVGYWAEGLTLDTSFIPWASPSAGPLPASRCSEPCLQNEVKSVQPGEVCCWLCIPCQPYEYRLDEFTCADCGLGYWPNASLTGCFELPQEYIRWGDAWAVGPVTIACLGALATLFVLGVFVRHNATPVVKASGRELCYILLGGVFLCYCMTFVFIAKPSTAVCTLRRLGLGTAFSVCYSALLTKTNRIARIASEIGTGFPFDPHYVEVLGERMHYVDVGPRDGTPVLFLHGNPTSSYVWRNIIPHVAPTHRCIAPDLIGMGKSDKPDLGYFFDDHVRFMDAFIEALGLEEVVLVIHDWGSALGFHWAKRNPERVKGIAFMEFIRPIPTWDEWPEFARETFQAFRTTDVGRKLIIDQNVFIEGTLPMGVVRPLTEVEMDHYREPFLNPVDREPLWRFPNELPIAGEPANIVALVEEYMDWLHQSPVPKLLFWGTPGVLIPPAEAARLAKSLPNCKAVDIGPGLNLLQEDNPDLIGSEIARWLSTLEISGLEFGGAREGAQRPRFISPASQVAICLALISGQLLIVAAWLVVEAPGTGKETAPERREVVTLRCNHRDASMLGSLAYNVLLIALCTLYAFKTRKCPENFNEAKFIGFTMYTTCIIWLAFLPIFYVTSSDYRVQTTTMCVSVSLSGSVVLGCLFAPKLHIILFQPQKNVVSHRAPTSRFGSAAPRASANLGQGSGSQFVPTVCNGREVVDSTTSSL
Chain of mGluR2-TMD (P31421 558-821 limits assumed): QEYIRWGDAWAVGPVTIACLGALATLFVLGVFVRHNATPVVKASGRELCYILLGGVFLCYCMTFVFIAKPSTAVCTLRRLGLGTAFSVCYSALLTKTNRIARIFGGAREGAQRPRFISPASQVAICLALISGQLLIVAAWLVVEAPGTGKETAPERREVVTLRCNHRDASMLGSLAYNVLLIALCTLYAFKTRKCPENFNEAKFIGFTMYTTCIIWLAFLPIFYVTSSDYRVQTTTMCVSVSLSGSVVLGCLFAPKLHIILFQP
T5 sequence (P31421 19-872 C121A/A677S/A681F/A685G): as the sequence (P31421 19-872 C121A/I779A) above, with A659S, A663F, A667G, A761I counted along it
T4 sequence (P31421 19-872 C121A/A677S/A681F/A685G/I779A): as the sequence (P31421 19-872 C121A/I779A) above, with A659S, A663F, A667G counted along it
Chain of UniProt P31422 (P31422 with tags, fused parts or gaps with the stated changes): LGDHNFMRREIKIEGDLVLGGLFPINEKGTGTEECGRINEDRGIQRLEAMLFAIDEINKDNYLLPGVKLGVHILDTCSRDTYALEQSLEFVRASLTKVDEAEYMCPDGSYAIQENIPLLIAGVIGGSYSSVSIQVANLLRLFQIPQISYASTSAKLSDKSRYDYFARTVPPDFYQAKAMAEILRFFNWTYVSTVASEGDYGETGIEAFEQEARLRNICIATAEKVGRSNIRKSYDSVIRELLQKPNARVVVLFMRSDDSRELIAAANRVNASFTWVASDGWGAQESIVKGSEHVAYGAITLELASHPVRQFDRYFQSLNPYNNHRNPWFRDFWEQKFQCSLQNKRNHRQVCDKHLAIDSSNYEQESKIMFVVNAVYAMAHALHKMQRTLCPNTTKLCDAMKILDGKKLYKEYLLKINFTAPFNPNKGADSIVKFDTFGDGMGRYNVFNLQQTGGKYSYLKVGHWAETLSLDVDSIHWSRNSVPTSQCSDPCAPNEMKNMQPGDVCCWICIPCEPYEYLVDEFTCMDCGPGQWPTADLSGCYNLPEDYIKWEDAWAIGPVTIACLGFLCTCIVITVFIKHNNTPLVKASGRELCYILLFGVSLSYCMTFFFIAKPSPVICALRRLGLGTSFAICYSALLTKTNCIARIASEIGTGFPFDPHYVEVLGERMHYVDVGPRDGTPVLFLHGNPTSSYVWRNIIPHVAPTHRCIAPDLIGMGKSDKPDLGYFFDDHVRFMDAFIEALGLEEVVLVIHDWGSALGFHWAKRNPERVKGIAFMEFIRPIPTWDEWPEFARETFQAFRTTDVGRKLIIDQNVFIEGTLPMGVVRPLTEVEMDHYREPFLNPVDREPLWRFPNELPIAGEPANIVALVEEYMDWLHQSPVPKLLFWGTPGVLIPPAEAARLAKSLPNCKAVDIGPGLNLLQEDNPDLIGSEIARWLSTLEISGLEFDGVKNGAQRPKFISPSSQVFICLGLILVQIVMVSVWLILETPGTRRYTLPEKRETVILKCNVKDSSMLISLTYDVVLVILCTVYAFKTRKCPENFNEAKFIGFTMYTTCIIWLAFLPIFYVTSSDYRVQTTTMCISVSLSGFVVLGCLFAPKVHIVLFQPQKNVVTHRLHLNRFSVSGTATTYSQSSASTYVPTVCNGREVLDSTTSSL
Chain of mGluR3 (Rattus norvegicus, UniProt P31422) (P31422 23-879): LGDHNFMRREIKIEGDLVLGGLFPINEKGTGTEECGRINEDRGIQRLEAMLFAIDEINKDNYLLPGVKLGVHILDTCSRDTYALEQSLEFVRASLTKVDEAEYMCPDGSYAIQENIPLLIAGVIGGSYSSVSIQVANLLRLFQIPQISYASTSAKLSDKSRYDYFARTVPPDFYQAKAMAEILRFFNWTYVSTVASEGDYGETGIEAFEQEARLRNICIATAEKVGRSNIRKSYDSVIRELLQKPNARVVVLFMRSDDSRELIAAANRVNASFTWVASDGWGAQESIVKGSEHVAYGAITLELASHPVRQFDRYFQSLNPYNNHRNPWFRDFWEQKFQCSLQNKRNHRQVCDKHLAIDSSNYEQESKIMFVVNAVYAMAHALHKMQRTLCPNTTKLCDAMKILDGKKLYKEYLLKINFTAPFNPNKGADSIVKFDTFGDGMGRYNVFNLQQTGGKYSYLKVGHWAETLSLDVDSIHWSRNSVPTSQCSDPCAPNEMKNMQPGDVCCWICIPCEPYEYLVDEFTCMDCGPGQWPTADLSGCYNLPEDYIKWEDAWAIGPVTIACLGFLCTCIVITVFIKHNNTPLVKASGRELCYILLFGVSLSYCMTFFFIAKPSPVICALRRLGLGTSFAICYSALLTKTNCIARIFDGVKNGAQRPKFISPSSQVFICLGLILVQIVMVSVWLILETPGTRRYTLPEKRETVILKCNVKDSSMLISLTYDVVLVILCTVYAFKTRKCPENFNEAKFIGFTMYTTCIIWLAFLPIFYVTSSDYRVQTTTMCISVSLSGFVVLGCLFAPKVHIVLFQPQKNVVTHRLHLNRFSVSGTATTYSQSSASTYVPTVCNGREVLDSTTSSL

In the case of `COc1ccccc1Oc1ccc(N(Cc2cccnc2)S(=O)(=O)CC(F)(F)F)cc1` [LY487379, N-(4-(2-methoxyphenoxy)phenyl)-N-(2,2,2-trifluoroethylsulfonyl)pyrid-3-ylmethylamine], the EC50 in [1] amounted to 450 ± 100 nM; in [2] (read-out: LY48 EC50, calcium imaging), 5.46 ± 0.01 µM; in [3], 270 ± 60 nM. The Calcium response amplitude in data set [1] (LY487379 1 nM, mGluR2) was 0.00; in data set [1] (LY487379 1 nM, normalized to 1 mM glutamate, replicates) it was 0.00; in data set [1] (LY487379 10 nM, mGluR2) it was 0.00; in [1] (LY487379 10 nM, normalized to 1 mM glutamate, replicates) it was 0.00; in data set [1] (LY487379 100 nM, normalized to 1 mM glutamate, replicates) it was 0.09 and 0.00 and 0.07 and 0.33; in data set [1] (LY487379 1 uM, mGluR2) it was 0.53 and 0.49 and 0.68 and 0.50 and 0.51 and 0.46. Also, the Calcium response amplitude is 0.53 and 0.49 and 0.68 and 0.50 and 0.51 and 0.46 in data set [1] (LY487379 1 uM, normalized to 1 mM glutamate, replicates); 0.70 and 0.58 and 0.72 in data set [1] (LY487379 3 uM, mGluR2); 0.70 and 0.58 and 0.72 in data set [1] (LY487379 3 uM, normalized to 1 mM glutamate, replicates); 0.61 and 0.56 and 0.77 and 0.92 and 0.74 and 0.69 in data set [1] (LY487379 10 uM, mGluR2); 0.61 and 0.56 and 0.77 and 0.92 and 0.74 and 0.69 in [1] (LY487379 10 uM, normalized to 1 mM glutamate, replicates); 0.76 and 0.82 and 0.73 and 0.74 in data set [1] (LY487379 100 uM, mGluR2). Moreover, the Calcium response amplitude in data set [1] (LY487379 100 uM, normalized to 1 mM glutamate, replicates) is 0.76 and 0.82 and 0.73 and 0.74; in data set [2] (LY487379 100 nM), 0.00; in [2] (LY487379 3 uM), 0.21 and 0.14; in [2] (LY487379 10 uM) it was 0.34 and 0.27; in data set [2] (LY487379 100 uM), 0.49 and 0.44; in [3] (LY487379 1 nM), 0.00. Besides, the Calcium response amplitude in data set [3] (LY487379 10 nM) is 0.14 and 0.16 and 0.09 and 0.00; in data set [3] (LY487379 100 nM), 0.27 and 0.19 and 0.25; in [3] (LY487379 1 uM), 0.80 and 0.82 (2×) and 0.66; in data set [3] (LY487379 3 uM), 0.86 and 0.89; in data set [3] (LY487379 10 uM) it was 0.94 and 0.93 and 0.86; in [3] (LY487379 100 uM) it was 0.97 and 0.91 and 0.99. Moreover, the “shift of LY48 EC50 compared to mGluR2” value in data set [2] (calcium imaging, rightward) amounted to 12 fold.

For the molecule `Cc1c(C(N)=O)nc2n1C[C@@H](COc1ccc(C(C)(C)C)cc1)O2` [TASP], the “% Dimerization” value is 76.12% and 87.00% and 99.52% and 87.93% and 80.12% and 79.00% in data set [4]; 52.39% and 61.74% and 61.54% and 62.46% and 33.04% and 41.52% in data set [5]; 59.23% and 63.47% and 55.82% and 58.53% and 66.92% and 63.85% in data set [6]; 47.45% and 39.66% and 50.29% and 36.75% and 47.53% and 38.72% in data set [7]; 50.00% and 40.35% and 44.84% and 41.46% and 44.90% and 44.88% in [8]; 69.61% and 70.23% and 79.80% and 76.57% and 71.76% and 76.09% in data set [9]. Also, the “% Dimerization” value in [10] was 70.24% and 67.71% and 72.49% and 72.50% and 70.98% and 74.03%; in data set [11], 78.37% and 85.60% and 87.01% and 85.50% and 86.03% and 88.59%. In addition, the “effect of ligand on dimerization (SiMPull)” value in data set [7] is “prevented any PAM- or NAM-induced dimerization shifts”; in data set [9] (saturating concentration), “clear increase in dimerization”; in data set [10], “no sensitivity”; in data set [11] (saturating concentration), “significantly increases dimerization”.

In the case of MNI 137, the “block of glutamate-induced FRET responses” value is reported as 32.0 ± 4.5% in data set [12] (MNI 137 10 μM); 42.9 ± 7.4% in [15] (MNI 137 10 μM); 44.9 ± 8.3% in data set [15] (MNI 137 50 μM, n = 3). In addition, the “Maximum % Inhibition” value in data set [12] (mGluR2, Experiment: FRET) was 29.8% and 42.4% and 23.8%; in data set [13] (mGluR3, Experiment: Function) it was 100%; in data set [1] (mGluR2, Experiment: Function) it was 100%. The “block of functional (calcium) glutamate response” value in data set [13] (MNI 137 10 μM) and in [1] (MNI 137 10 μM) was “full block of functional responses” in each case. Moreover, the “% Dimerization” value in [4] was 71.52% and 91.33% and 86.77% and 100.30% and 93.63% and 83.88%; in data set [5], 60.52% and 74.21% and 73.33% and 77.72% and 88.90% and 81.43%; in data set [6] it was 83.51% and 83.55% and 76.24% and 73.81% and 83.57% and 74.66%; in data set [7], 46.88% and 52.99% and 50.80% and 55.60% and 41.02% and 44.69%; in [8], 49.83% and 50.71% and 40.36% and 45.67% and 37.52% and 54.71%; in [9], 39.03% and 46.76% and 55.63% and 64.38% and 47.94% and 59.01%. The “% Dimerization” value was 80.57% and 69.39% and 68.4% and 70.29% and 73.87% and 66.8% and 70.292% and 73.871% and 80.566% and 69.3893% in [10]; 70.00% and 81.03% and 62.91% and 67.92% and 62.85% and 68.46% in [11]. The “effect of ligand on dimerization (SiMPull)” value was “clear increase” in data set [5] (saturating concentration), “significantly increases dimerization” in data set [6] (saturating concentration), “prevented any PAM- or NAM-induced dimerization shifts” in [7] and “no sensitivity” in data set [10]. Also, in data set [14], the IC50 is about 10 nM. Moreover, the “Basal FRET Response (%)” value in data set [15] (mGluR3-Halo-ICL2, absence of glutamate, individual measurements) is 13.3% and 15.2% and 5% and 5.6% and 0% and 19.5% and 7.8% and 52%.

For the molecule SNAP-mGluR2-P778A, the “Surface Expression” value in [16] is 0.58 and 0.76 and 0.68 and 0.87 and 0.59 and 1.10 and 0.91.
